Experimental data from patent publication US5688938A, “Calcium receptor-active molecules” (priority 1995, dated 1997).
Where a name gives a salt, the structure may show the parent alone. Read-outs that look alike come from different tables or passages of the source.

Biological target: T1, parathyroid cell calcium receptor (Bos taurus, UniProt P35384)
T1 sequence (P35384 21-1085 limits assumed): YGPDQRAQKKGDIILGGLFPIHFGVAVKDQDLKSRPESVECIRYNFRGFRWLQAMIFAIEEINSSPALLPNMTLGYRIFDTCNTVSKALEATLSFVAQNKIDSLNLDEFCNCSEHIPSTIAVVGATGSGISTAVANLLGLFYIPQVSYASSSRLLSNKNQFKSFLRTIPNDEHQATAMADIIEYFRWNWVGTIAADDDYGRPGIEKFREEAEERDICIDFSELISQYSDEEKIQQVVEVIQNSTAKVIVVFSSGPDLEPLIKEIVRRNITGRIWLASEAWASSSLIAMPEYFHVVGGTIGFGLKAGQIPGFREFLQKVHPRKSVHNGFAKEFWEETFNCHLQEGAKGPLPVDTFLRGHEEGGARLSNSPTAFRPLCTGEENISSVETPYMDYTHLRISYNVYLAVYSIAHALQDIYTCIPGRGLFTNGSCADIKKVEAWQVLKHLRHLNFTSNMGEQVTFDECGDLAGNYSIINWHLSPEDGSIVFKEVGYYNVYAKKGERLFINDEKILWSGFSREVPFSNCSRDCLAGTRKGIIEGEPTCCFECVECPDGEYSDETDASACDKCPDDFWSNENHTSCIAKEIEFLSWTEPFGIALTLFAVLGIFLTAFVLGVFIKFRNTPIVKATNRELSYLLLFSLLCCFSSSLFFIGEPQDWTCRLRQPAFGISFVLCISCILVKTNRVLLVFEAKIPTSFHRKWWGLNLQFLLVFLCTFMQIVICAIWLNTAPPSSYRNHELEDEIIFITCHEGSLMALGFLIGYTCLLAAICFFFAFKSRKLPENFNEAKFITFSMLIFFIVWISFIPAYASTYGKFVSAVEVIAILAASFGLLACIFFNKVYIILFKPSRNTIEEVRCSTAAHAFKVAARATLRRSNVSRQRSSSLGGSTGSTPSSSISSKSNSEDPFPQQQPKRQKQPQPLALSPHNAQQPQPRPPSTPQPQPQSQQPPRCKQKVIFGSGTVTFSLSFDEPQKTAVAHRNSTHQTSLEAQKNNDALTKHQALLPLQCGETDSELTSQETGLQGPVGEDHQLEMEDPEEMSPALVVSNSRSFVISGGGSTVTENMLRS
Assay: cell-based
Format: cell-based
Conditions: for effect on basal [Ca^2+]i or increases evoked by extracellular Ca^2+: 1 μM; for relative potency: in words; for effect on [Ca^2+]i response to extracellular Mg^2+: ionomycin 1 μM, 1799 5 μM

[1] = Table 8 (arylalkylamine calcimimetics), parathyroid cell calcium receptor, read-out: EC50
[2] = Table 7, parathyroid cell calcium receptor, read-out: EC50
[3] = parathyroid cell calcium receptor, […], read-out: EC50
[4] = Table 6, bovine parathyroid cells, read-out: EC50 PARATHYROID

Structure (SMILES)	EC50 [1] [nM]	also measured
N[C@@]1(C(=O)O)CC[C@@H](C(=O)O)C1 (relative stereo) [trans-ACPD, reference compound]	–	response to mGluR agonists (bovine parathyroid cells, or Xenopus oocytes expressing calcium receptors): did not respond
CC1=C(C(=O)OC(C)C)C(c2cccc3nonc23)C([N+](=O)[O-])=C(C)N1 (single isomer, unassigned; (-)) [(-) 202-791, reference compound]	–	effect on basal [Ca^2+]i or increases evoked by extracellular Ca^2+: None of the dihydropyridines tested
COc1cccc([C@@H](C)NC2CCc3ccccc3C2)c1 (stereo partly shown) [5W/5Y]	3600	–
COc1ccc(OC)c([C@@H](C)NCCCc2ccccc2)c1 [7Z(R-)]	–	EC50 [2]: > 30000 nM
COc1ccc(OC)c([C@H](C)NCCCc2ccccc2)c1 [7Z(S-)]	–	EC50 [2]: > 100000 nM
N=C(N)NCCC[C@H](N)C(=O)NCCCNCCCNCCCCCNC(=O)[C@H](CC(N)=O)NC(=O)Cc1ccc(O)cc1O [Argiotoxin-636, reference compound]	–	increases in [Ca^2+]i (400 μM): did not elicit increases; potentiation of cytosolic Ca^2+ responses to extracellular Ca^2+ (400 μM): did potentiate; increases in [Ca^2+]i (100 to 300 μM): had no effect
COC(=O)C1=C(C)NC(C)=C([N+](=O)[O-])C1c1ccccc1C(F)(F)F (stereo not shown) [BAY K 8644, reference compound]	–	effect on basal [Ca^2+]i or increases evoked by extracellular Ca^2+: None of the dihydropyridines tested
c1ccc(CNCCC(c2ccccc2)c2ccccc2)cc1 [Compound 1A]	–	EC50 [2]: 166000 nM
CC(NCCCc1ccccc1)c1ccccc1 (stereo not shown) [Compound 1D]	–	EC50 [2]: 48000 nM; relative potency: nearly as potent as the parent molecule
CCC(NCCC(c1ccccc1)c1ccccc1)c1ccccc1 (stereo not shown) [Compound 1E]	–	EC50 [2]: 123000 nM
CC(NCCCCc1ccccc1)c1ccccc1 (stereo not shown) [Compound 1S]	–	EC50 [2]: 128000 nM
CC(NCCC(c1ccccc1)c1ccccc1)c1cccc2ccccc12 (stereo not shown) [Compound 3U]	640	–
COc1cccc([C@@H](C)NCCCc2cccc(F)c2)c1 [Compound 4N]	800	–
COc1cccc([C@@H](C)NCCCc2ccc(F)cc2)c1 [Compound 4P]	1600	–
COc1cccc(C(C)NCCC(C)c2ccccc2Cl)c1 (stereo not shown) [Compound 4Y]	1300	–
COc1cccc(C(C)NC(C)c2cccc3ccccc23)c1 (stereo not shown) [Compound 6E]	2700	–
CCOc1cccc([C@@H](C)NCCCc2ccccc2)c1 [Compound 6R]	3400	–
CCOc1cccc([C@@H](C)NCCCc2ccccc2Cl)c1 [Compound 6T]	2900	–
C[C@H](NCCCc1ccccc1)C1CCCCC1 [Compound 7Y]	–	EC50 [2]: > 30000 nM
COc1cccc([C@@H](C)NCCCc2ccccc2OC)c1 [Compound 8U, (R)-(+)-N-3-(2-Methoxyphenyl)-1-propyl-3-methoxy-α-methylbenzylamine hydrochloride]	440	EC50 [3]: < 5000 nM
COc1cccc([C@@H](C)NCCCc2ccc(C)cc2)c1 [Compound 8X]	760	–

Structure (SMILES)	EC50 [1] [nM]	also measured
COc1cccc([C@H](C)NCCCc2ccc(C)cc2)c1 [Compound 8Y]	–	EC50 [2]: > 30000 nM
C[C@@H](NCc1ccc2ccccc2c1)c1cccc2ccccc12 [Compound 9C]	600	–
CC(C)C(N[C@H](C)c1cccc2ccccc12)c1ccc2ccccc2c1 (stereo partly shown) [Compound 10F]	890	–
CCOC(=O)COc1cccc([C@@H](C)NCc2ccc3ccccc3c2)c1 [Compound 11D]	1800	–
COc1cccc([C@@H](C)NCCCc2ccccc2C)c1 [Compound 12U, (R)-N-3-(2-Methylphenyl)-1-propyl-3-methoxy-α-methylbenzylamine hydrochloride]	1200	EC50 [3]: < 5000 nM
COc1cccc([C@@H](C)NCCCc2cccc(C)c2)c1 [Compound 12V, (R)-N-3-(3-Methylphenyl)-1-propyl-3-methoxy-α-methylbenzylamine hydrochloride]	420	EC50 [3]: < 5000 nM
CCCOc1ccc(CN[C@H](C)c2cccc3ccccc23)cc1 [Compound 13Q]	~800	–
C[C@@H](NCc1ccc(Cl)c(Cl)c1)c1cccc2ccccc12 [Compound 13R]	250	–
C[C@@H](NCc1ccc(C(F)(F)F)cc1)c1cccc2ccccc12 [Compound 13S]	< 130	–
COc1ccc(CN[C@H](C)c2cccc3ccccc23)cc1 [Compound 13U]	190	–
C[C@@H](NCc1ccc2c(c1)OCCO2)c1cccc2ccccc12 [Compound 13X]	< 750	–
COc1ccc([C@H](C)N[C@H](C)c2cccc3ccccc23)cc1 [Compound 14V]	1700	–
COc1ccc(CN[C@H](C)c2cccc3ccccc23)cc1C [Compound 16Q]	40	–
C[C@@H](NCc1ccc2c(c1)OCO2)c1cccc2ccccc12 [Compound 16R]	360	–
COc1ccc(CN[C@H](C)c2cccc3ccccc23)cc1F [Compound 16T]	40	–
Cc1ccc(CN[C@H](C)c2cccc3ccccc23)cc1C [Compound 16V]	< 130	–
CCOc1ccc(CN[C@H](C)c2cccc3ccccc23)cc1 [Compound 16W]	590	–
CSc1ccc(CN[C@H](C)c2cccc3ccccc23)cc1 [Compound 16X]	100	–
COc1ccc([C@@H](C)N[C@H](C)c2cccc3ccccc23)cc1Cl [Compound 17X, (R,R)-N-(1-Ethyl-4'-methoxy-3'-chlorophenyl)-1-(1-naphthylethyl)amine]	20	EC50 [3]: < 5000 nM
COc1cccc([C@@H](C)NC2CCN(Cc3ccccc3)CC2)c1 [Compound 20F]	< 1000	–
COc1ccc(CCCN[C@H](C)c2cccc(OC)c2)cc1 [Compound 20I]	> 1000	–

Structure (SMILES)	EC50 [1] [nM]	also measured
COc1cccc([C@@H](C)NCCCc2ccc(OC)c(OC)c2)c1 [Compound 20J]	> 3000	–
COc1cccc([C@H](C)NCCCc2ccc(OC)c(OC)c2)c1 [Compound 20K]	–	EC50 [2]: > 30000 nM
COc1cccc(C(C)NC(C)CCc2ccccc2)c1 (stereo not shown) [Compound 20R]	2400	–
CCC(CCc1ccccc1)NC(C)c1cccc(OC)c1 (stereo not shown) [Compound 20S]	4200	–
COc1cccc([C@@H](C)N[C@H](C)CCc2ccccc2)c1 [Compound 21D]	3000	–
C[C@H](CCc1ccccc1)N[C@H](C)c1cccc2ccccc12 [Compound 21F]	380	–
C[C@@H](CCc1ccccc1)N[C@H](C)c1cccc2ccccc12 [Compound 21G]	1100	–
COc1cccc([C@@H](C)NCCCc2ccccc2C(F)(F)F)c1 [Compound 21O]	260	–
COc1cccc([C@@H](C)NCCCc2ccc(C(F)(F)F)cc2)c1 [Compound 21Q]	1400	–
COc1cccc([C@H](C)NCCCc2ccccc2)c1 [NPS S-467]	–	EC50 [4]: > 30000 nM; EC50 [2]: > 30000 nM
CCCCCCCCCCCCCC(=O)O[C@@H]1[C@@H](C)[C@@]2(O)[C@@H](C=C(CO)C[C@]3(O)C(=O)C(C)=C[C@@H]23)[C@@H]2C(C)(C)[C@]12OC(C)=O [PMA, phorbol myristate acetate, reference compound]	–	effect on mobilization of intracellular Ca^2+ elicited by molecular polycations: depressed
CCCC(=O)N[C@@H](Cc1ccc(O)cc1)C(=O)NCCCCNCCCNCCCN [Philanthotoxin-433, reference compound]	–	effect on intracellular Ca^2+ (500 μM): without effect
C[C@@H](NCCC(c1ccccc1)c1ccccc1)c1ccccc1 [R-Fendiline]	–	EC50 [4]: 9000 nM; EC50 [2]: 9000 nM
C[C@H](NCCC(c1ccccc1)c1ccccc1)c1ccccc1 [S-Fendiline]	–	EC50 [2]: > 15000 nM
COc1ccc([C@@H]2Sc3ccccc3N(CCN(C)C)C(=O)[C@@H]2OC(C)=O)cc1 [diltiazem, reference compound]	–	effective at 100 μM (as verapamil and D-600) (100 μM): effective
C[C@H](CCC(=O)O)C[C@H](C)C[C@H](C)C(=O)/C=C(\O)[C@H](C)C[C@H](C)C/C=C/[C@@H](C)[C@@H](O)[C@@H](C)[C@@H](O)C[C@@H]1CC[C@@](C)([C@H]2CC[C@@](C)([C@@H](C)O)O2)O1 [ionomycin, reference compound]	–	effect on [Ca^2+]i response to extracellular Mg^2+: blocks the response to Mg^2+
COc1cccc(C(C)NCCC(c2ccccc2)c2ccccc2)c1 (stereo not shown) [meta-Methoxyfendiline]	–	relative potency: as potent as NPS 467
O=C(CC(O)(C(F)(F)F)C(F)(F)F)CC(O)(C(F)(F)F)C(F)(F)F [molecule 1799, reference compound]	–	effect on [Ca^2+]i response to extracellular Mg^2+: without effect on the response to Mg^2+
COC(=O)C1=C(C)NC(C)=C(C(=O)OC)C1c1ccccc1[N+](=O)[O-] [nifedipine, reference compound]	–	effect on basal [Ca^2+]i or increases evoked by extracellular Ca^2+: None of the dihydropyridines tested
